Measurements from ChEMBL document CHEMBL1156740, “A bivalent ligand (KMN-21) antagonist for mu/kappa heterodimeric opioid receptors” (Bioorg Med Chem Lett, 2009).
Active and inactive are the calls of the source.

Experiments:
Assay type in all cases: functional, cell-based
[1] = biological target: T1, Opioid receptors; mu & kappa (Homo sapiens) (UniProt P41145+P35372); assay: Antagonistic activity at mu/kappa opioid receptor expressed in HEK293 cells co-transfected with chimeric G-protein delta 6-Gqi4-myr assessed as inhibition of U69593-induced calcium release at 1 uM
T1 sequence (P35372 whole entry, looked up): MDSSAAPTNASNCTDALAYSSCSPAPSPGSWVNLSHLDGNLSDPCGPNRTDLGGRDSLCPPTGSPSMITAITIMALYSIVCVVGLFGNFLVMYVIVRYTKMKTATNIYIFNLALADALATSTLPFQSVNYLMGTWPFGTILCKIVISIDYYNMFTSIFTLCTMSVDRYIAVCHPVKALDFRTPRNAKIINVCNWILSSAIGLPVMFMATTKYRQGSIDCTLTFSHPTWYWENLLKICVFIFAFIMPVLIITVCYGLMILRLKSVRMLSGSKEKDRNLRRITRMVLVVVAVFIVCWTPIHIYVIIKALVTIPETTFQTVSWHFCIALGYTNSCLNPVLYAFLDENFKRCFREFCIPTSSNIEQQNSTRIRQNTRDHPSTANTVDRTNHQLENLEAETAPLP
T1 sequence (P41145 whole entry, looked up): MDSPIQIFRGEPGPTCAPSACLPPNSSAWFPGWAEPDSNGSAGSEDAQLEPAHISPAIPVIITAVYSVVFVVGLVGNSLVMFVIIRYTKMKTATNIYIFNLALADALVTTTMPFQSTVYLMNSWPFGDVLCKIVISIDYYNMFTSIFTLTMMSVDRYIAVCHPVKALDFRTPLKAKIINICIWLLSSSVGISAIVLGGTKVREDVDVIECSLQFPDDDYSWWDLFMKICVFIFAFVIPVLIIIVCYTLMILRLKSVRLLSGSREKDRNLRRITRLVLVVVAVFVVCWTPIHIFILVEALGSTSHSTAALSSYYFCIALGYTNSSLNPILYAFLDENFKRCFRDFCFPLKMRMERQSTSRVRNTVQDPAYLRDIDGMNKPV

[2] = biological target: Kappa-type opioid receptor (Homo sapiens) (UniProt P41145); assay: Antagonistic activity at kappa opioid receptor expressed in HEK293 cells co-transfected with chimeric G-protein delta 6-Gqi4-myr assessed as inhibition of U69593-induced calcium release at 1 uM
Kappa-type opioid receptor (Homo sapiens), sequence (P41145 whole entry): as the sequence (P41145 whole entry, looked up) above

[3] = biological target: T1, Opioid receptors; mu & kappa (Homo sapiens); assay: Antagonistic activity at mu/kappa opioid receptor expressed in HEK293 cells co-transfected with chimeric G-protein delta 6-Gqi4-myr assessed as inhibition of DAMGO-induced calcium release at 1 uM
[4] = biological target: Mu-type opioid receptor (Homo sapiens) (UniProt P35372); assay: Antagonistic activity at mu opioid receptor expressed in HEK293 cells co-transfected with chimeric G-protein delta 6-Gqi4-myr assessed as inhibition of DAMGO-induced calcium release at 1 uM
Mu-type opioid receptor (Homo sapiens), sequence (P35372 whole entry): as the sequence (P35372 whole entry, looked up) above

Measured: Activity

N=C(NCCCNC(=O)CNC(=O)CNC(=O)CCC(=O)NCC(=O)NCC(=O)N[C@H]1C[C@@H]2Oc3c(O)ccc4c3[C@@]23CCN(CC2CC2)[C@H](C4)[C@]3(O)C1)Nc1ccc2[nH]c3c(c2c1)C[C@@]1(O)[C@H]2Cc4ccc(O)c5c4[C@@]1(CCN2CC1CC1)[C@H]3O5
active: [1] | [2] | [3] | [4]

N=C(NCCCCNC(=O)CNC(=O)CNC(=O)CCC(=O)NCC(=O)NCC(=O)N[C@H]1C[C@@H]2Oc3c(O)ccc4c3[C@@]23CCN(CC2CC2)[C@H](C4)[C@]3(O)C1)Nc1ccc2[nH]c3c(c2c1)C[C@@]1(O)[C@H]2Cc4ccc(O)c5c4[C@@]1(CCN2CC1CC1)[C@H]3O5
active: [1] | [2] | [3] | [4]

N=C(NCCCCCNC(=O)CNC(=O)CNC(=O)CCC(=O)NCC(=O)NCC(=O)N[C@H]1C[C@@H]2Oc3c(O)ccc4c3[C@@]23CCN(CC2CC2)[C@H](C4)[C@]3(O)C1)Nc1ccc2[nH]c3c(c2c1)C[C@@]1(O)[C@H]2Cc4ccc(O)c5c4[C@@]1(CCN2CC1CC1)[C@H]3O5
active: [1] | [2] | [3] | [4]

N=C(NCCNC(=O)CNC(=O)CNC(=O)CCC(=O)NCC(=O)NCC(=O)N[C@H]1C[C@@H]2Oc3c(O)ccc4c3[C@@]23CCN(CC2CC2)[C@H](C4)[C@]3(O)C1)Nc1ccc2[nH]c3c(c2c1)C[C@@]1(O)[C@H]2Cc4ccc(O)c5c4[C@@]1(CCN2CC1CC1)[C@H]3O5
active: [1] | [2] | [3] | [4]
